Biological target: T1, Lipolase® 100L (Thermomyces lanuginosus, UniProt O59952)
T1 construct: purchased Sigma-Aldrich
T1 sequence (O59952 23-291): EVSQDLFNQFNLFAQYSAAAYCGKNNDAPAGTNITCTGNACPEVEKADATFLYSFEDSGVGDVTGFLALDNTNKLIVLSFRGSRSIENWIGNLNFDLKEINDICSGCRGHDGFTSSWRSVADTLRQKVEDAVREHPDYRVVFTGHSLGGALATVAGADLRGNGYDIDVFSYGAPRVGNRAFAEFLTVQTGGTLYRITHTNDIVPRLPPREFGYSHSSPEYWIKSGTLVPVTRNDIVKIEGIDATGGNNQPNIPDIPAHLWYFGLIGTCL
Test: Lipase storage stability in liquid formulations at 37° C. (pNP-valerate activity)
Format: biochemical, Thermomyces lanuginosa
Details: for lipase activity, 3 d: 3 d storage at 37° C.; for lipase activity, 7 d: 7 d storage at 37° C.; for lipase activity, 14 d: 14 d storage at 37° C.; for lipase activity, 21 d: 21 d storage at 37° C.; for lipase activity, 28 d: 28 d storage at 37° C.; for lipase activity, 35 d: 35 d storage at 37° C.; for lipase activity, T0: relative to 100% value of reference formulation at time 0
Procedure: The storage stability of Lipase was assessed at 37° C.
Base test formulations were manufactured by making base formulations I to V by mixing the components according to Table 1.
The respective component (a) or comparative compound was added, if applicable, to the respective base formulation in amounts as indicated in Table 1.
Lipase used: Lipolase® 100L (CAS-No. 9001-62-1, EC-No. 232-619-9) was purchased from Sigma-Aldrich.
The amount of lipase as provided in Table 1 refers to active protein.
Water was added to accomplish the balance to 100.
Lipolase activity at certain points in time as indicated in Table 2 was be determined by employing pNitrophenol-valerate (2.4 mM pNP-C5 in 100 mM Tris pH 8.0, 0.01% Triton X100) as a substrate. The absorption at 405 nm was measured at 20° C. every 30 seconds over 5 minutes.
The slope (absorbance increase at 405 nm per minute) of the time dependent absorption-curve is directly proportional to the activity of the lipase.
The […] activity values provided in Table 2 were calculated referring to the 100% value determined in the reference formulation at the time 0.
The nomenclature of formulations is as follows: the Roman number before the full stop characterizes the base formulation, the Arabian number the type of compound (A.# compound according to invention (component (a)); (B.#) comparative compound).

[1] = base formulation I. (Lipolase 0.2 wt%, tested compound 2.5 wt%)
[2] = base formulation II. (Lipolase 0.2 wt%, tested compound 2.5 wt%)
[3] = base formulation III. (Lipolase 0.2 wt%, tested compound 2.0 wt%)
[4] = base formulation IV. (Lipolase 0.2 wt%, tested compound 2.0 wt%)
[5] = base formulation V. (Lipolase 0.2 wt%, tested compound 2.0 wt%)

| Structure (SMILES) | lipase activity, 3 d [1] | lipase activity, 7 d [1] | lipase activity, 14 d [1] | lipase activity, 21 d [1] | lipase activity, 28 d [1] | lipase activity, 35 d [1] | lipase activity, T0 [1] | lipase activity, 3 d [3] | lipase activity, 7 d [3] | lipase activity, 14 d [3] | lipase activity, 21 d [3] | lipase activity, 28 d [3] | lipase activity, 35 d [3] | lipase activity, T0 [3] | lipase activity, 3 d [4] | lipase activity, 7 d [4] | lipase activity, 14 d [4] | lipase activity, 21 d [4] | lipase activity, 28 d [4] | lipase activity, 35 d [4] | further results |
| --- | --- | --- | --- | --- | --- | --- | --- | --- | --- | --- | --- | --- | --- | --- | --- | --- | --- | --- | --- | --- | --- |
| CCOC(=O)CC(O)(CC(=O)OCC)C(=O)OCC [A.1, Triethylcitrate] | 102% | 96% | 94% | 87% | 85% | 80% | 100% | 98% | 96% | 93% | 90% | 85% | 82% | 100% | 96% | 94% | 93% | 88% | 85% | 82% | lipase activity, 3 d [2]: 101%; lipase activity, 7 d [2]: 94%; lipase activity, 14 d [2]: 90%; lipase activity, 21 d [2]: 88%; lipase activity, 28 d [2]: 83%; lipase activity, 35 d [2]: 80%; lipase activity, T0 [2]: 100%; lipase activity, T0 [4]: 98%; lipase activity, 3 d [5]: 96%; lipase activity, 7 d [5]: 93%; lipase activity, 14 d [5]: 89%; lipase activity, 21 d [5]: 84%; lipase activity, 28 d [5]: 81%; lipase activity, 35 d [5]: 79%; lipase activity, T0 [5]: 100% |
| CCCOC(=O)CC(O)(CC(=O)OCCC)C(=O)OCCC [A.2, Tripropylcitrate] | 100% | 98% | 94% | 90% | 87% | 82% | 101% | 100% | 101% | 97% | 94% | 90% | 87% | 102% |  |  |  |  |  |  |  |
| CCCCOC(=O)CC(O)(CC(=O)OCCCC)C(=O)OCCCC [A.3, Tributylcitrate] |  |  |  |  |  |  |  |  |  |  |  |  |  |  | 100% | 96% | 95% | 90% | 88% | 85% | lipase activity, T0 [4]: 99%; lipase activity, 3 d [5]: 97%; lipase activity, 7 d [5]: 92%; lipase activity, 14 d [5]: 88%; lipase activity, 21 d [5]: 83%; lipase activity, 28 d [5]: 80%; lipase activity, 35 d [5]: 73%; lipase activity, T0 [5]: 101% |
| CCCCOC(=O)CC(CC(=O)OCCCC)(OC(C)=O)C(=O)OCCCC [A.4, Acetyltributylcitrate] | 104% | 99% | 93% | 88% | 83% | 78% | 102% |  |  |  |  |  |  |  | 97% | 95% | 93% | 89% | 86% | 83% | lipase activity, T0 [4]: 101%; lipase activity, 3 d [5]: 100%; lipase activity, 7 d [5]: 94%; lipase activity, 14 d [5]: 90%; lipase activity, 21 d [5]: 85%; lipase activity, 28 d [5]: 80%; lipase activity, 35 d [5]: 74%; lipase activity, T0 [5]: 101% |
| CCOC(=O)CC(CC(=O)OCC)(OC(C)=O)C(=O)OCC [A.5, Acetyltriethylcitrate] | 100% | 97% | 92% | 86% | 81% | 74% | 97% | 95% | 93% | 88% | 85% | 80% | 77% | 98% |  |  |  |  |  |  | lipase activity, 3 d [2]: 98%; lipase activity, 7 d [2]: 97%; lipase activity, 14 d [2]: 93%; lipase activity, 21 d [2]: 90%; lipase activity, 28 d [2]: 85%; lipase activity, 35 d [2]: 81%; lipase activity, T0 [2]: 102% |

Reference: patent publication US20210395651A1, “COMPOUNDS STABILIZING HYDROLASES IN LIQUIDS” (BASF SE, priority 2018, published 2021)
